How the values were obtained:
[1] = molecular target: Macrophage colony-stimulating factor 1 receptor (Homo sapiens) (UniProt P07333); test: Inhibition of human Fms using KKKSPGEYVNIEFG as substrate in presence of [gamma-33P]ATP at 1 uM after 40 mins by scintillation counter method
[2] = molecular target: Cyclin-dependent kinase 1/cyclin B1 (Homo sapiens, UniProt P06493); test: Inhibition of human CDK1/cyclinB using Histone H1 as substrate in presence of [gamma-33P]ATP after 40 mins by scintillation counter method; format: protein-complex assay
[3] = molecular target: CDK4/Cyclin D3 (Homo sapiens, UniProt P11802); test: Inhibition of human CDK4/cyclinD3 using Histone H1 as substrate in presence of [gamma-33P]ATP after 40 mins by scintillation counter method; format: protein-complex assay
[4] = molecular target: CDK6/cyclin D3 (Homo sapiens, UniProt Q00534); test: Inhibition of human CDK6/cyclinD3 using Histone H1 as substrate in presence of [gamma-33P]ATP after 40 mins by scintillation counter method; format: protein-complex assay
[5] = molecular target: Dual specificity protein kinase CLK3 (Homo sapiens, UniProt P49761); test: Inhibition of human CLK3 using ERMRPRKRQGSVRRRV as substrate in presence of [gamma-33P]ATP after 40 mins by scintillation counter method
Dual specificity protein kinase CLK3, sequence (P49761 whole entry): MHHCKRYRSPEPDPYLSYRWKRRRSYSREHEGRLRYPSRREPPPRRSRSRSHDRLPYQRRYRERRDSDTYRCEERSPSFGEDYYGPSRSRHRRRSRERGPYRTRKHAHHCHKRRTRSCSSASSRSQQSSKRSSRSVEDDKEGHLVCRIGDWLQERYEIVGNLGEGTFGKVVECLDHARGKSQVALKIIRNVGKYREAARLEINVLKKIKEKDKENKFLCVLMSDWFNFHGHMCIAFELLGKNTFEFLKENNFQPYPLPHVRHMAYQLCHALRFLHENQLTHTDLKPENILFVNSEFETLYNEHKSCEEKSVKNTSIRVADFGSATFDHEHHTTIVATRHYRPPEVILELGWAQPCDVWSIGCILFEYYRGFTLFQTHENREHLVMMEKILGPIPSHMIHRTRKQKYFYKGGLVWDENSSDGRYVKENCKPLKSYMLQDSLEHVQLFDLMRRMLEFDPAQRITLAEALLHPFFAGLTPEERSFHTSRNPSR

Cyclin-dependent kinase 1/cyclin B1, sequence (P06493 whole entry): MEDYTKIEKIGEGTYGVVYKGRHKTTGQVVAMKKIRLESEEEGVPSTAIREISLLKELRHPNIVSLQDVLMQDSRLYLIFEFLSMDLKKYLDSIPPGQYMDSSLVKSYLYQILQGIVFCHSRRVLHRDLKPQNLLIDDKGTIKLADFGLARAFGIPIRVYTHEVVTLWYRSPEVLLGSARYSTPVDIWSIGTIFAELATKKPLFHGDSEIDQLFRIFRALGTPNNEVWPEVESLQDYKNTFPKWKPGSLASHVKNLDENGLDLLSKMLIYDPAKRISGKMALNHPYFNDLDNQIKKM
Cyclin-dependent kinase 1/cyclin B1, sequence (P14635 whole entry, further chain): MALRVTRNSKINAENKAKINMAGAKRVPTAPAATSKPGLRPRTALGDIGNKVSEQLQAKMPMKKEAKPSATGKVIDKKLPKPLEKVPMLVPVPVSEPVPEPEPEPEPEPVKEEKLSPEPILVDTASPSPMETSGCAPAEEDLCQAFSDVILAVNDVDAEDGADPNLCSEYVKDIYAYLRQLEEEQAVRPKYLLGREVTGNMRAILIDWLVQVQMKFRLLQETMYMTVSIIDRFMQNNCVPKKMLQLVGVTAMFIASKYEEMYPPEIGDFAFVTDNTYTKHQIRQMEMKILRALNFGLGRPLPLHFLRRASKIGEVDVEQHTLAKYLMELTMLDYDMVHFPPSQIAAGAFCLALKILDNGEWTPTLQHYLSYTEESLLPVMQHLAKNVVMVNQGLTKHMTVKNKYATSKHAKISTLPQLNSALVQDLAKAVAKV
CDK4/Cyclin D3, sequence (P11802 whole entry): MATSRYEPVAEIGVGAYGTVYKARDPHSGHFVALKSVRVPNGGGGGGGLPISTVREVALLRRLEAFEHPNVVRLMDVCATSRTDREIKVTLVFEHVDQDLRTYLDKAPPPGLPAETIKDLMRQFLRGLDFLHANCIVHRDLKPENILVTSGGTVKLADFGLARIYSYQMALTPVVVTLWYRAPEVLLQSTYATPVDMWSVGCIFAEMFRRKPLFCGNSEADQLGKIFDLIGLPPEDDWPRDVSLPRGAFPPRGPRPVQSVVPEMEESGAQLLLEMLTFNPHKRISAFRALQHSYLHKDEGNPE
CDK4/Cyclin D3, sequence (P30281 whole entry, further chain): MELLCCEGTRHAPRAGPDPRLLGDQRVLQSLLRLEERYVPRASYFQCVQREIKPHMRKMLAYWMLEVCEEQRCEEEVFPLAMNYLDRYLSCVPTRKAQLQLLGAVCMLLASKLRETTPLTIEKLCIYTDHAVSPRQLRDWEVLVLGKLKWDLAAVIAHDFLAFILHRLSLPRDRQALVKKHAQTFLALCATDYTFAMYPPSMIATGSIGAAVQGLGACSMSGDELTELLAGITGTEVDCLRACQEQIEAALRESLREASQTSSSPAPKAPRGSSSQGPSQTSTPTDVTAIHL
Macrophage colony-stimulating factor 1 receptor (Homo sapiens), sequence (P07333 whole entry): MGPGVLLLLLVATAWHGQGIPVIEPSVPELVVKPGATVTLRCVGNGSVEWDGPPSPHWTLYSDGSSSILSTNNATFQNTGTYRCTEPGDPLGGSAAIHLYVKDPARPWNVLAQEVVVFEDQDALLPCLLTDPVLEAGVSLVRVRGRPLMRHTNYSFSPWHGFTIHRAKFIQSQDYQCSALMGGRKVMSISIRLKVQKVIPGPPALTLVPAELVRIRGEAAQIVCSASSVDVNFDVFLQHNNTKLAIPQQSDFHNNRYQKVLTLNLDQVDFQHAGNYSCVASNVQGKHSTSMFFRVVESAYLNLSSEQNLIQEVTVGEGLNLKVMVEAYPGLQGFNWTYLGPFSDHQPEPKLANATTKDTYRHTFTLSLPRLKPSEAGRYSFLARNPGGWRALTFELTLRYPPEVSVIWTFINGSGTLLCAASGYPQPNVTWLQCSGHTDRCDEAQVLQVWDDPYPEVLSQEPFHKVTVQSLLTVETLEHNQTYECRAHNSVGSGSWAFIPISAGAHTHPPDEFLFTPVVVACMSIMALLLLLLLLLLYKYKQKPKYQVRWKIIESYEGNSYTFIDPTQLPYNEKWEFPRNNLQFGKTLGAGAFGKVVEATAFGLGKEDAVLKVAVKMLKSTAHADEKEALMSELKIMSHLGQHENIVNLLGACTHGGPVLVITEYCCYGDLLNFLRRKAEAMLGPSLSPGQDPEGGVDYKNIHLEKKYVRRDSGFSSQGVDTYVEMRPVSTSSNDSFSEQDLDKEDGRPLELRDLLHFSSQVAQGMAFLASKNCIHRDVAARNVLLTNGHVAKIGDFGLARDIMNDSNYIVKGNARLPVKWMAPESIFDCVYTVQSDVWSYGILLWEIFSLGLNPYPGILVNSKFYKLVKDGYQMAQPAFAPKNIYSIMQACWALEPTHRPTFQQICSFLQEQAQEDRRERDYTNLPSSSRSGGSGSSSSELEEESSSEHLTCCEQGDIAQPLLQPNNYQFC
CDK6/cyclin D3, sequence (P30281 whole entry): as the sequence (P30281 whole entry, further chain) above
CDK6/cyclin D3, sequence (Q00534 whole entry): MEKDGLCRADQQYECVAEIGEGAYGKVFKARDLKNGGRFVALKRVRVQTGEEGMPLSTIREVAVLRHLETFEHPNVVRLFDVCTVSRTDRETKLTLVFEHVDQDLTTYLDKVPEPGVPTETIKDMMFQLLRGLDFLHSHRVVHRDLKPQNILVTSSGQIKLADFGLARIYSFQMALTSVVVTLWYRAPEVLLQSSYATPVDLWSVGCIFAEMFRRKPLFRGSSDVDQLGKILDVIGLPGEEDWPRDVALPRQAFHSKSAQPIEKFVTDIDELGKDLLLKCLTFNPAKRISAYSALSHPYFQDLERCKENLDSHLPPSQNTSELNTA

Compound: CC(C)n1cnc2c(Nc3cc(N)cc(Cl)c3)nc(N[C@@H]3CCCC[C@@H]3N)nc21 (racemic)
- inhibition [1]: 9%

Compound: CC(C)n1cnc2c(Nc3cccc(Cl)c3)nc(N[C@H]3CCCC[C@@H]3N)nc21
- IC50 [2]: > 1 µM
- IC50 [3]: > 1 µM
- IC50 [4]: > 1 µM
- inhibition [1]: -1%
- IC50 [5]: > 1 µM

Compound: CC(C)n1cnc2c(Nc3cccc(Cl)c3)nc(N[C@@H]3CCCC[C@@H]3N)nc21
- IC50 [2]: 0.674 µM
- IC50 [3]: 0.541 µM
- IC50 [4]: > 1 µM
- IC50 [5]: > 1 µM

— ChEMBL document CHEMBL4002601, “A triple exon-skipping luciferase reporter assay identifies a new CLK inhibitor pharmacophore” (Bioorg Med Chem Lett, 2017)
